Test results published in US20240391889A1, “ANTIMICROBIAL COMPOUNDS AND THE METHODS OF USE” (priority 2021, published 2024).
Converted amounts (≈) assume the structure as drawn. Numbered stars: 1 amine (or outer) side, 2 acyl side, 3 side chain; on linkers, the order of the positions; unused ones are H or OH. Square brackets hold non-standard residues; d marks the D form. Peptide text beside a SMILES is read from it. * marks the point of attachment. N(1S-cyclohexylethyl)Gly = C[C@H](NCC(=O)O)C1CCCCC1; N(3-imidazol-1-ylpropyl)Gly = O=C(O)CNCCCn1ccnc1; Gly(Nα-4-Cl-benzyl) = O=C(O)CNCc1ccc(Cl)cc1; N(4-Br-benzyl)Gly = O=C(O)CNCc1ccc(Br)cc1; N(2-thienylmethyl)Gly = O=C(O)CNCc1cccs1; N(tridecyl)Gly = CCCCCCCCCCCCCNCC(=O)O; N(4-F-Bzl)Gly = O=C(O)CNCc1ccc(F)cc1; X1 = CC(c1ccccc1)N(CC(=O)[*:2])[*:1]; Gly(N-2-aminoethyl) = NCCNCC(=O)O; Myristoyl = CCCCCCCCCCCCCC(=O)*; NFurfurylGly = O=C(O)CNCc1ccco1; Gly(N(CH2)3NH2) = NCCCNCC(=O)O; Gly(N-cHex) = O=C(O)CNC1CCCCC1; Nphe = O=C(O)CNCc1ccccc1; NPrGly = CCCNCC(=O)O; Nlys = NCCCCNCC(=O)O; Sar = CNCC(=O)O

Key:
C. albicans = type: cell-based, Candida albicans; settings: 24 h
Source text: (§1) This screening led to the discovery of RMG9-11 (FIG. 2C). The minimum inhibitory concentration (MIC) of resynthesized RMG9-11 was initially determined against C. albicans, C. neoformans, and the ESKAPE bacteria via CSLI guidelines (CLSI. Methods for Dilution Antimicrobial Susceptibility Tests for Bacteria That Grow Aerobically, 11th Edition. Clinical and Laboratory Standards Institute (2018); CLSI. Reference method for broth dilution antifungal susceptibility testing of yeasts; approved standard-third edition; CLSI document M27-A3. Clinical and Laboratory Standards Institute (2008)). […] C. albicans clinical isolates include a reference strain (M1), fluconazole susceptible strains (M4 and M6), and fluconazole resistant strains (M2, M3, M5, and M7). ATCC 64124 is multidrug resistant C. albicans strain that is resistant to amphotericin B, fluconazole, caspofungin, and flucytosine. All MICs were performed under CSLI guidelines in triplicate on at least three different days.
(§2) The minimum inhibitory concentration (MIC) of peptoids against fungal pathogens C. albicans and C. neoformans was determined following CLSI guidelines (Reference method for broth dilution antifungal susceptibility testing of yeasts; approved standard-third edition; CLSI document M27-A3.” CLSI. 2008.). Colonies were transferred from a streaked YPD plate to 0.85% saline to reach an OD530 between 0.18 and 0.25. This inoculant was diluted 1:100 into RPMI-MOPS and then further diluted 1:20 into RPMI-MOPS. 198 μL of inoculant was seeded into each well of a 96 well black-walled plate. 2-fold serial dilutions of 100× peptoid solutions were prepared in water and 2 μL of peptoid were added to each well in triplicate. […] MIC was defined as the lowest concentration of compound preventing fungal growth. This assay was repeated 3 times on separate days with each compound.

C. neoformans = type: cell-based, Cryptococcus neoformans; settings: 72 h
Source text: as §1, §2

in vitro = type: cell-based; settings: human, HepG2 hepatocellular carcinoma cells
Protocol: The mammalian cell lines that were tested (HepG2, 3T3, and HaCat) were incubated with RMG9-11 for 72 hours and cell viability was determined via mitochondrial activity using an MTT reduction assay where viable cells reduce MTT to formazan. Toxicity is reported as the concentration of the peptoid that results in a 50% reduction in viable cells, termed toxicity dose 50% or TD50. […] SR is defined as the TD50 divided by MIC and provides a measure of the therapeutic window for a compound. Typically for most lead compounds that would continue through development and optimization, a SR of 10 is preferred while an SR of 100 is more desirable for a compound moving into preclinical animal model evaluation.
Hepatocellular carcinoma (HepG2), mouse fibroblast (3T3), and human keratinocyte (HaCat) cells were cultured in Dulbeco modified eagle media (DMEM) containing 10% fetal bovine serum (FBS) and 1% penicillin, streptomycin, and glutamine (PSG) at 37° C. and 5% CO2. Cells were collected and adjusted to […] to 4×10^5 cells/mL in phenol-red free DMEM and plated (100 μL) 96 well plates. 2-fold serial dilutions of 10× peptoid (11.1 μL) were added to each well in triplicate. Water (vehicle) was used as a negative control. Plates were incubated at 37° C. in 5% CO2 for 72 hours. Thiazolyl blue tetrazolium bromide (MTT) was added to each well (5 mg/mL; 20 μL) and incubated for 3 hours. Media was removed, DMSO (100 μL) was added, and plates were incubated at 37° C. for 10 minutes. Plates were read on a SPECTRAMAX M5 plate reader (Abs. 570 nm). The concentration of compound resulting in a 50% reduction in growth compared to control (toxicity dose 50%; TD50) was determined using GRAFIT. This procedure was repeated three times on separate days.

Row | MIC C. albicans (C. albicans) [µg/mL] | MIC C. neoformans (C. neoformans) [µg/mL] | Structure (SMILES) | CC50 at 72 h (in vitro) [µg/mL]
1 | 6.25 (≈ 6.07 µM) | 1.56 (≈ 1.52 µM) | CCCCCCCCCCCCCNCC(=O)N(CCC)CC(=O)N(CC(=O)N(CCCCN)CC(=O)N(CC(=O)N(CC(=O)N(CCCN)CC(N)=O)Cc1ccccc1)Cc1ccco1)Cc1ccccc1 [Compound 911-M3] (H-[N(tridecyl)Gly][NPrGly][Nphe][Nlys][NFurfurylGly][Nphe][Gly(N(CH2)3NH2)]-NH2) | 87.5 ± 10.8 (≈ 85 µM)
2 | 6.25 (≈ 5.97 µM) | 1.56 (≈ 1.49 µM) | CCCCCCCCCCCCCNCC(=O)N(CCC)CC(=O)N(CC(=O)N(CCCCN)CC(=O)N(CC(=O)N(CC(=O)N(CCCN)CC(N)=O)Cc1ccccc1)Cc1ccco1)Cc1ccc(F)cc1 [Compound 911-M4] (H-[N(tridecyl)Gly][NPrGly][N(4-F-Bzl)Gly][Nlys][NFurfurylGly][Nphe][Gly(N(CH2)3NH2)]-NH2) | 120 ± 36.9 (≈ 114 µM)
3 | 6.25 to 12.5 | 1.56 (≈ 1.47 µM) | CCCCCCCCCCCCCNCC(=O)N(CCC)CC(=O)N(CC(=O)N(CCCCN)CC(=O)N(CC(=O)N(CC(=O)N(CCCN)CC(N)=O)Cc1ccccc1)Cc1ccco1)Cc1ccc(Cl)cc1 [Compound 911-M5] (H-[N(tridecyl)Gly][NPrGly][Gly(Nα-4-Cl-benzyl)][Nlys][NFurfurylGly][Nphe][Gly(N(CH2)3NH2)]-NH2) | 114 ± 32.5 (≈ 108 µM)
4 | 6.25 (≈ 5.64 µM) | 1.56 to 3.13 | CCCCCCCCCCCCCNCC(=O)N(CCC)CC(=O)N(CC(=O)N(CCCCN)CC(=O)N(CC(=O)N(CC(=O)N(CCCN)CC(N)=O)Cc1ccccc1)Cc1ccco1)Cc1ccc(Br)cc1 [Compound 911-M6] (H-[N(tridecyl)Gly][NPrGly][N(4-Br-benzyl)Gly][Nlys][NFurfurylGly][Nphe][Gly(N(CH2)3NH2)]-NH2) | 108 ± 13.6 (≈ 97 µM)
5 | 12.5 (≈ 12.3 µM) | 3.13 (≈ 3.07 µM) | CCCCCCCCCCCCCNCC(=O)N(CCC)CC(=O)N(CC(=O)N(CCCCN)CC(=O)N(CC(=O)N(CC(=O)N(CCCN)CC(N)=O)Cc1ccccc1)Cc1ccco1)Cc1ccco1 [Compound 911-M7] (H-[N(tridecyl)Gly][NPrGly][NFurfurylGly][Nlys][NFurfurylGly][Nphe][Gly(N(CH2)3NH2)]-NH2) | 187 ± 21.5 (≈ 183 µM)
6 | 6.25 (≈ 6.04 µM) | – | CCCCCCCCCCCCCNCC(=O)N(CCC)CC(=O)N(CC(=O)N(CCCCN)CC(=O)N(CC(=O)N(CC(=O)N(CCCN)CC(N)=O)Cc1ccccc1)Cc1ccco1)Cc1cccs1 [Compound 911-M8] (H-[N(tridecyl)Gly][NPrGly][N(2-thienylmethyl)Gly][Nlys][NFurfurylGly][Nphe][Gly(N(CH2)3NH2)]-NH2) | 108 ± 34.6 (≈ 104 µM)
7 | 12.5 (≈ 12.2 µM) | 1.56 (≈ 1.53 µM) | CCCCCCCCCCCCCNCC(=O)N(CCC)CC(=O)N(CC(=O)N(CCCCN)CC(=O)N(CC(=O)N(CC(=O)N(CCCN)CC(N)=O)Cc1ccccc1)Cc1ccco1)C1CCCCC1 [Compound 911-M9] (H-[N(tridecyl)Gly][NPrGly][Gly(N-cHex)][Nlys][NFurfurylGly][Nphe][Gly(N(CH2)3NH2)]-NH2) | 99.5 ± 22 (≈ 97.4 µM)
8 | 3.13 to 6.25 | 1.56 (≈ 1.49 µM) | CCCCCCCCCCCCCNCC(=O)N(CCC)CC(=O)N(CC(=O)N(CCCCN)CC(=O)N(CC(=O)N(CC(=O)N(CCCN)CC(N)=O)Cc1ccccc1)Cc1ccco1)[C@@H](C)C1CCCCC1 [Compound 911-M11] (H-[N(tridecyl)Gly][NPrGly][N(1S-cyclohexylethyl)Gly][Nlys][NFurfurylGly][Nphe][Gly(N(CH2)3NH2)]-NH2) | 82.5 ± 11.5 (≈ 78.6 µM)
9 | 6.25 (≈ 5.8 µM) | 3.13 (≈ 2.9 µM) | CCCCCCCCCCCCCC(=O)NCC(=O)N(CCN)CC(=O)N(CC(=O)N(CCCCN)CC(=O)N(CC(=O)N(CC(=O)N(CCCN)CC(N)=O)Cc1ccccc1)Cc1ccco1)[C@@H](C)C1CCCCC1 [Compound 911-M12] (Myristoyl-G[Gly(N-2-aminoethyl)][N(1S-cyclohexylethyl)Gly][Nlys][NFurfurylGly][Nphe][Gly(N(CH2)3NH2)]-NH2) | 145 ± 35 (≈ 134 µM)
10 | 6.25 (≈ 5.95 µM) | 3.13 (≈ 2.98 µM) | CCCCCCCCCCCCCNCC(=O)N(CCN)CC(=O)N(CC(=O)N(CCCCN)CC(=O)N(CC(=O)N(CC(=O)N(CCCN)CC(N)=O)Cc1ccccc1)Cc1ccco1)[C@@H](C)C1CCCCC1 [Compound 911-M13] (H-[N(tridecyl)Gly][Gly(N-2-aminoethyl)][N(1S-cyclohexylethyl)Gly][Nlys][NFurfurylGly][Nphe][Gly(N(CH2)3NH2)]-NH2) | 140 ± 33 (≈ 133 µM)
11 | 25 (≈ 22.9 µM) | 6.25 to 12.5 | CCCCCCCCCCCCCC(=O)NCC(=O)N(CCC)CC(=O)N(CC(=O)N(CCCCN)CC(=O)N(CC(=O)N(CCCn1ccnc1)CC(=O)N(CCCN)CC(N)=O)Cc1ccco1)C(C)c1ccccc1 (stereo not shown) [Compound 911-M14] (Myristoyl-G[NPrGly][X1][Nlys][NFurfurylGly][N(3-imidazol-1-ylpropyl)Gly][Gly(N(CH2)3NH2)]-NH2) | > 200
12 | >100 | – | CCCN(CC(=O)N(CC(=O)N(CCCCN)CC(=O)N(CC(=O)N(CC(=O)N(CCCN)CC(N)=O)Cc1ccccc1)Cc1ccco1)C(C)c1ccccc1)C(=O)CNC (stereo not shown) [SAR 1] (H-[Sar][NPrGly][X1][Nlys][NFurfurylGly][Nphe][Gly(N(CH2)3NH2)]-NH2) | > 200
13 | 12.5 (≈ 12.3 µM) | – | CCCCCCCCCCCCCNCC(=O)N(C)CC(=O)N(CC(=O)N(CCCCN)CC(=O)N(CC(=O)N(CC(=O)N(CCCN)CC(N)=O)Cc1ccccc1)Cc1ccco1)C(C)c1ccccc1 (stereo not shown) [SAR 2] (H-[N(tridecyl)Gly][Sar][X1][Nlys][NFurfurylGly][Nphe][Gly(N(CH2)3NH2)]-NH2) | 83.9 ± 5.7 (≈ 82.6 µM)
14 | 50 (≈ 52.5 µM) | – | CCCCCCCCCCCCCNCC(=O)N(CCC)CC(=O)N(C)CC(=O)N(CCCCN)CC(=O)N(CC(=O)N(CC(=O)N(CCCN)CC(N)=O)Cc1ccccc1)Cc1ccco1 [SAR 3] (H-[N(tridecyl)Gly][NPrGly][Sar][Nlys][NFurfurylGly][Nphe][Gly(N(CH2)3NH2)]-NH2) | 194 ± 7.5 (≈ 204 µM)
15 | 6.25 (≈ 6.34 µM) | – | CCCCCCCCCCCCCNCC(=O)N(CCC)CC(=O)N(CC(=O)N(C)CC(=O)N(CC(=O)N(CC(=O)N(CCCN)CC(N)=O)Cc1ccccc1)Cc1ccco1)C(C)c1ccccc1 (stereo not shown) [SAR 4] (H-[N(tridecyl)Gly][NPrGly][X1][Sar][NFurfurylGly][Nphe][Gly(N(CH2)3NH2)]-NH2) | 61.8 ± 16.1 (≈ 62.7 µM)
16 | 12.5 to 25 | – | CCCCCCCCCCCCCNCC(=O)N(CCC)CC(=O)N(CC(=O)N(CCCCN)CC(=O)N(C)CC(=O)N(CC(=O)N(CCCN)CC(N)=O)Cc1ccccc1)C(C)c1ccccc1 (stereo not shown) [SAR 5] (H-[N(tridecyl)Gly][NPrGly][X1][Nlys][Sar][Nphe][Gly(N(CH2)3NH2)]-NH2) | 157 ± 10.1 (≈ 160 µM)
17 | 25 (≈ 25.8 µM) | – | CCCCCCCCCCCCCNCC(=O)N(CCC)CC(=O)N(CC(=O)N(CCCCN)CC(=O)N(CC(=O)N(C)CC(=O)N(CCCN)CC(N)=O)Cc1ccco1)C(C)c1ccccc1 (stereo not shown) [SAR 6] (H-[N(tridecyl)Gly][NPrGly][X1][Nlys][NFurfurylGly][Sar][Gly(N(CH2)3NH2)]-NH2) | 156 ± 4.7 (≈ 161 µM)
18 | 6.25 (≈ 6.25 µM) | – | CCCCCCCCCCCCCNCC(=O)N(CCC)CC(=O)N(CC(=O)N(CCCCN)CC(=O)N(CC(=O)N(CC(=O)N(C)CC(N)=O)Cc1ccccc1)Cc1ccco1)C(C)c1ccccc1 (stereo not shown) [SAR 7] (H-[N(tridecyl)Gly][NPrGly][X1][Nlys][NFurfurylGly][Nphe][Sar]-NH2) | 57.7 ± 11 (≈ 57.7 µM)
